In patent US10287301B2 (Achillion Pharmaceuticals, Inc., priority 2015, dated 2019):
Read-outs that look alike come from different tables or passages of the source.

Target: Human Factor D (Homo sapiens (Human), UniProt P00746)
Test: Human Factor D Assay
Assay type: biochemical
Experimental: Human Factor D (purified from human serum, Complement Technology, Inc.) at 80 nM final concentration was incubated with test compound at various concentrations for 5 minutes at room temperature in 50 mM Tris, 1M NaCl, pH 7.5. A synthetic substrate Z-L-Lys-SBzl and DTNB (Ellman's reagent) are added to final concentrations of 100 μM each. […] IC50 values are calculated by nonlinear regression of complement Factor D reaction rates as a function of test compound concentration.

[1] = Human Factor D 80 nM, substrate Z-L-Lys-SBzl, read-out: IC50

Human Factor D, sequence (P00746 26-253): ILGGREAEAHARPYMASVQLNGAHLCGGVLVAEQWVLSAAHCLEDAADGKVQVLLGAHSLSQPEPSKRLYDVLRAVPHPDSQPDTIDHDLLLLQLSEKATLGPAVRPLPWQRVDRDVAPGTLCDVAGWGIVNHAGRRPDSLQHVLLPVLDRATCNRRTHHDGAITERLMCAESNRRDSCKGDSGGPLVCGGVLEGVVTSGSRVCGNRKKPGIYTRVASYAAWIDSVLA

| SMILES | IC50 [1] | IC50 |
| --- | --- | --- |
| NC(=O)c1nn(CC(=O)N2C[C@H](F)C[C@H]2C(=O)Nc2ccccc2-c2nc3ccccc3s2)c2ccc(-c3ccnnc3)cc12 [Compound 41, 1-(2-((2S,4R)-2-(2-(benzo[d]thiazol-2-yl)phenylcarbamoyl)-4-fluoropyrrolidin-1-yl)-2-oxoethyl)-5-(pyridazin-4-yl)-1H-indazole-3-carboxamide] | > 10 µM |  |
| CC(=O)c1cn(CC(=O)N2C[C@H](F)C[C@H]2C(=O)Nc2noc3cc(C(F)(F)F)ccc23)c2ccc(-c3ccnnc3)cc12 [Compound 42, (2S,4R)-1-(2-(3-acetyl-5-(pyridazin-4-yl)-1H-indol-1-yl)acetyl)-4-fluoro-N-(6-(trifluoromethyl)benzo[d]isoxazol-3-yl)pyrrolidine-2-carboxamide] | > 10 µM |  |
| CC(=O)c1cn(CC(=O)N2C[C@H](F)C[C@H]2C(=O)NCc2cccc(Cl)c2)c2ccc(-c3ccnnc3)cc12 [Compound 44, (2S,4R)-1-(2-(3-acetyl-5-(pyridazin-4-yl)-1H-indol-1-yl)acetyl)-N-(3-chlorobenzyl)-4-fluoropyrrolidine-2-carboxamide] | < 1 µM |  |
| NC(=O)c1nn(CC(=O)N2C[C@H](F)C[C@H]2C(=O)NCc2cccc(Cl)c2)c2ccc(-c3ccnnc3)cc12 [Compound 45, 1-(2-((2S,4R)-2-(3-chlorobenzylcarbamoyl)-4-fluoropyrrolidin-1-yl)-2-oxoethyl)-5-(pyridazin-4-yl)-1H-indazole-3-carboxamide] | < 1 µM |  |
| CC(=O)c1cn(CC(=O)N2C[C@H](F)C[C@H]2C(=O)NCc2cc(F)cc(Cl)c2)c2ccc(-c3ccnnc3)cc12 [Compound 46, (2S,4R)-1-(2-(3-acetyl-5-(pyridazin-4-yl)-1H-indol-1-yl)acetyl)-N-(3-chloro-5-fluorobenzyl)-4-fluoropyrrolidine-2-carboxamide] | < 1 µM |  |
| NC(=O)c1nn(CC(=O)N2C[C@H](F)C[C@H]2C(=O)Nc2cccnc2)c2ccc(-c3ccnnc3)cc12 [Compound 47, 1-(2-((2S,4R)-4-fluoro-2-(pyridin-3-ylcarbamoyl)pyrrolidin-1-yl)-2-oxoethyl)-5-(pyridazin-4-yl)-1H-indazole-3-carboxamide] |  | > 10 µM |
| CCN1Cc2ccc(NC(=O)[C@@H]3C[C@@H](F)CN3C(=O)Cn3nc(C(N)=O)c4cc(-c5ccnnc5)ccc43)cc2C1=O [Compound 48, 1-(2-((2S,4R)-2-(2-ethyl-3-oxoisoindolin-5-ylcarbamoyl)-4-fluoropyrrolidin-1-yl)-2-oxoethyl)-5-(pyridazin-4-yl)-1H-indazole-3-carboxamide] | > 10 µM |  |
| CCN1Cc2ccc(NC(=O)[C@@H]3C[C@@H](F)CN3C(=O)Cn3cc(C(C)=O)c4cc(-c5ccnnc5)ccc43)cc2C1=O [Compound 49, (2S,4R)-1-(2-(3-acetyl-5-(pyridazin-4-yl)-1H-indol-1-yl)acetyl)-N-(2-ethyl-3-oxoisoindolin-5-yl)-4-fluoropyrrolidine-2-carboxamide] |  | 1 to 10 µM |
| NC(=O)c1nn(CC(=O)N2C[C@H](F)C[C@H]2C(=O)Nc2ccc3ncsc3c2)c2ccc(-c3ccnnc3)cc12 [Compound 50, 1-(2-((2S,4R)-2-(benzo[d]thiazol-6-ylcarbamoyl)-4-fluoropyrrolidin-1-yl)-2-oxoethyl)-5-(pyridazin-4-yl)-1H-indazole-3-carboxamide] | > 10 µM |  |
| NC(=O)c1nn(CC(=O)N2C[C@H](F)C[C@H]2C(=O)N[C@@H]2CCC[C@@H]2OCc2ccccc2)c2ccc(-c3ccnnc3)cc12 [Compound 51, 1-(2-((2S,4R)-2-((1R,2S)-2-(benzyloxy)cyclopentyl-carbamoyl)-4-fluoropyrrolidin-1-yl)-2-oxoethyl)-5-(pyridazin-4-yl)-1H-indazole-3-carboxamide] | > 10 µM |  |
| NC(=O)c1nn(CC(=O)N2C[C@H](F)C[C@H]2C(=O)NCc2nc3ccccc3s2)c2ccc(-c3ccnnc3)cc12 [Compound 52, 1-(2-((2S,4R)-2-(benzo[d]thiazol-2-ylmethylcarbamoyl)-4-fluoropyrrolidin-1-yl)-2-oxoethyl)-5-(pyridazin-4-yl)-1H-indazole-3-carboxamide] | > 10 µM |  |
| CC(=O)c1cn(CC(=O)N2C[C@H](F)C[C@H]2C(=O)Nc2nc(-c3ccc4c(c3)CCCC4)cs2)c2ccc(-c3ccnnc3)cc12 [Compound 54, (2S,4R)-1-(2-(3-acetyl-5-(pyridazin-4-yl)-1H-indol-1-yl)acetyl)-4-fluoro-N-(4-(5,6,7,8-tetrahydro-naphthalen-2-yl)thiazol-2-yl)pyrrolidine-2-carboxamide] | > 10 µM |  |
| NC(=O)c1nn(CC(=O)N2C[C@H](F)C[C@H]2C(=O)Nc2nc(-c3ccc4c(c3)CCCC4)cs2)c2ccc(-c3ccnnc3)cc12 [Compound 55, 1-(2-((2S,4R)-4-fluoro-2-(4-(5,6,7,8-tetrahydro-naphthalen-2-yl)thiazol-2-ylcarbamoyl)pyrrolidin-1-yl)-2-oxoethyl)-5-(pyridazin-4-yl)-1H-indazole-3-carboxamide] | > 10 µM |  |
| CC(=O)c1cn(CC(=O)N2C[C@H](F)C[C@H]2C(=O)Nc2nc(-c3c(C)nc4sccn34)cs2)c2ccc(-c3ccnnc3)cc12 [Compound 57] | > 10 µM |  |
| Cc1nc2sccn2c1-c1csc(NC(=O)[C@@H]2C[C@@H](F)CN2C(=O)Cn2nc(C(N)=O)c3cc(-c4ccnnc4)ccc32)n1 [Compound 58, 1-(2-((2S,4R)-4-fluoro-2-(4-(6-methylimidazo[2,1-b]thiazol-5-yl)thiazol-2-ylcarbamoyl)pyrrolidin-1-yl)-2-oxoethyl)-5-(pyridazin-4-yl)-1H-indazole-3-carboxamide] | > 10 µM |  |
| CC(=O)c1cn(CC(=O)N2C[C@H](F)C[C@H]2C(=O)NCc2cccnc2)c2ccc(-c3ccnnc3)cc12 [Compound 59, (2S,4R)-1-(2-(3-acetyl-5-(pyridazin-4-yl)-1H-indol-1-yl)acetyl)-4-fluoro-N-(pyridin-3-ylmethyl) pyrrolidine-2-carboxamide] |  | 1 to 10 µM |
| CC(=O)c1cn(CC(=O)N2C[C@H](F)C[C@H]2C(=O)Nc2ccc(CNC(=O)OCC3c4ccccc4-c4ccccc43)cc2)c2ccc(-c3ccnnc3)cc12 [Compound 61] | > 10 µM |  |
| NC(=O)c1nn(CC(=O)N2C[C@H](F)C[C@H]2C(=O)NCc2cc(F)cc(Cl)c2)c2ccc(-c3ccnnc3)cc12 [Compound 62, 1-(2-((2S,4R)-2-(3-chloro-5-fluorobenzyl-carbamoyl)-4-fluoropyrrolidin-1-yl)-2-oxoethyl)-5-(pyridazin-4-yl)-1H-indazole-3-carboxamide] | < 1 µM |  |
| CC(=O)c1cn(CC(=O)N2C[C@H](F)C[C@H]2C(=O)Nc2ccccc2N2CCOC2=O)c2ccc(-c3ccnnc3)cc12 [Compound 64, (2S,4R)-1-(2-(3-acetyl-5-(pyridazin-4-yl)-1H-indol-1-yl)acetyl)-4-fluoro-N-(2-(2-oxooxazolidin-3-yl)phenyl) pyrrolidine-2-carboxamide] | > 10 µM |  |
| NC(=O)c1nn(CC(=O)N2C[C@H](F)C[C@H]2C(=O)Nc2ccccc2N2CCOC2=O)c2ccc(-c3ccnnc3)cc12 [Compound 65, 1-(2-((2S,4R)-4-fluoro-2-(2-(2-oxooxazolidin-3-yl)phenylcarbamoyl)pyrrolidin-1-yl)-2-oxoethyl)-5-(pyridazin-4-yl)-1H-indazole-3-carboxamide] | > 10 µM |  |
| CC(=O)c1cn(CC(=O)N2C[C@H](F)C[C@H]2C(=O)Nc2cncc(Cl)c2)c2ccc(-c3ccnnc3)cc12 [Compound 66, (2S,4R)-1-(2-(3-acetyl-5-(pyridazin-4-yl)-1H-indol-1-yl)acetyl)-N-(5-chloropyridin-3-yl)-4-fluoropyrrolidine-2-carboxamide] | < 1 µM |  |
| CC(=O)c1cn(CC(=O)N2C[C@H](F)C[C@H]2C(=O)Nc2cncc(Br)c2)c2ccc(-c3ccnnc3)cc12 [Compound 68, (2S,4R)-1-(2-(3-acetyl-5-(pyridazin-4-yl)-1H-indol-1-yl)acetyl)-N-(5-bromopyridin-3-yl)-4-fluoropyrrolidine-2-carboxamide] | < 1 µM |  |
| NC(=O)c1nn(CC(=O)N2C[C@H](F)C[C@H]2C(=O)Nc2nnc(-c3ccc(Cl)c(Cl)c3)s2)c2ccc(-c3ccnnc3)cc12 [Compound 69, 1-(2-((2S,4R)-2-(5-(3,4-dichlorophenyl)-1,3,4-thiadiazol-2-ylcarbamoyl)-4-fluoropyrrolidin-1-yl)-2-oxoethyl)-5-(pyridazin-4-yl)-1H-indazole-3-carboxamide] | > 10 µM |  |
| NCc1ccc(NC(=O)[C@@H]2C[C@@H](F)CN2C(=O)Cn2nc(C(N)=O)c3cc(-c4ccnnc4)ccc32)cc1 [Compound 70, 1-(2-((2S,4R)-2-(4-(aminomethyl)phenylcarbamoyl)-4-fluoropyrrolidin-1-yl)-2-oxoethyl)-5-(pyridazin-4-yl)-1H-indazole-3-carboxamide] | > 10 µM |  |
| Cc1ccnn1-c1ccccc1NC(=O)[C@@H]1C[C@@H](F)CN1C(=O)Cn1nc(C(N)=O)c2cc(-c3ccnnc3)ccc21 [Compound 71, 1-(2-((2S,4R)-4-fluoro-2-(2-(5-methyl-1H-pyrazol-1-yl)phenylcarbamoyl)pyrrolidin-1-yl)-2-oxoethyl)-5-(pyridazin-4-yl)-1H-indazole-3-carboxamide] | > 10 µM |  |
| CC(=O)c1cn(CC(=O)N2C[C@H](F)C[C@H]2C(=O)Nc2ccccc2-n2nccc2C)c2ccc(-c3ccnnc3)cc12 [Compound 72, (2S,4R)-1-(2-(3-acetyl-5-(pyridazin-4-yl)-1H-indol-1-yl)acetyl)-4-fluoro-N-(2-(5-methyl-1H-pyrazol-1-yl)phenyl) pyrrolidine-2-carboxamide] | > 10 µM |  |
| NC(=O)c1nn(CC(=O)N2C[C@H](F)C[C@H]2C(=O)Nc2cccc(OCc3ccccc3)n2)c2ccc(-c3ccnnc3)cc12 [Compound 73, 1-(2-((2S,4R)-2-(6-(benzyloxy)pyridin-2-ylcarbamoyl)-4-fluoropyrrolidin-1-yl)-2-oxoethyl)-5-(pyridazin-4-yl)-1H-indazole-3-carboxamide] | > 10 µM |  |
